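Cultured in 96-well plates, cells were exposed to test compound for 48 hours across five concentrations. Abbreviation: GI50, concentration required for 50% inhibition of growth. TGI denotes the concentration required for complete inhibition of growth.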
Columns and labels:
Assay in all cases: growth of human tumour cells (NCI), 48 h
NCI-H226 lung = test system: NCI-H226 lung
OVCAR-4 ovarian = test system: OVCAR-4 ovarian
SF-268 CNS = test system: SF-268 CNS
COLO 205 colon = test system: COLO 205 colon
RXF 393 renal = test system: RXF 393 renal
HS 578T breast = test system: HS 578T breast
LOX IMVI melanoma = test system: LOX IMVI melanoma
NCI/ADR-RES ovarian = test system: NCI/ADR-RES ovarian
HOP-62 NSCLC = test system: HOP-62 NSCLC
TK-10 renal = test system: TK-10 renal

| SMILES | TGI (NCI-H226 lung) | TGI (OVCAR-4 ovarian) | TGI (SF-268 CNS) | TGI (COLO 205 colon) | TGI (RXF 393 renal) | TGI (HS 578T breast) | TGI (LOX IMVI melanoma) | TGI (NCI/ADR-RES ovarian) | TGI (HOP-62 NSCLC) | TGI (TK-10 renal) | GI50 (NCI-H226 lung) | GI50 (HOP-62 NSCLC) | GI50 (SF-268 CNS) | GI50 (COLO 205 colon) | GI50 (RXF 393 renal) | GI50 (HS 578T breast) | GI50 (NCI/ADR-RES ovarian) | GI50 (TK-10 renal) | GI50 (OVCAR-4 ovarian) | GI50 (LOX IMVI melanoma) |
| --- | --- | --- | --- | --- | --- | --- | --- | --- | --- | --- | --- | --- | --- | --- | --- | --- | --- | --- | --- | --- |
| Cc1ccc(NC(=O)/C(Cc2cc(=O)oc3cc(O)ccc23)=N\NC(C)(C)C)cc1C | > 100 µM | > 100 µM | > 100 µM | > 100 µM | > 100 µM | > 100 µM | > 100 µM | > 100 µM | – | – | – | – | – | – | – | – | – | – | – | – |
| COC(=O)C(=O)C(C(=O)C(=O)Nc1ccccc1OC)c1nc2ccc([N+](=O)[O-])cc2[nH]c1=O (centres undefined) | > 100 µM | > 100 µM | > 100 µM | – | > 100 µM | > 100 µM | > 100 µM | > 100 µM | > 100 µM | > 100 µM | – | – | – | – | – | – | – | – | – | – |
| CC(C)(C)N/N=C(\C(=O)Nc1nc(=S)[nH][nH]1)C1C(=O)Nc2ccccc2S1=O (centres undefined) | > 100 µM | > 100 µM | > 100 µM | > 100 µM | > 100 µM | – | > 100 µM | – | > 100 µM | > 100 µM | – | – | – | – | – | – | – | – | – | – |
| CCOC(=O)C(Cc1ccccc1)NC(=O)c1[nH]cnc1/N=N/N(C)C (centres undefined) | > 100 µM | > 100 µM | > 100 µM | > 100 µM | – | – | > 100 µM | – | > 100 µM | – | – | – | – | – | – | – | – | – | – | – |
| O=c1oc2cc(OC/C(=N/O)c3ccc(F)cc3)ccc2c2ccccc12 | 40.6 µM | – | 42.3 µM | 61.4 µM | 32.5 µM | 63.1 µM | – | 36.2 µM | 34.2 µM | 81.2 µM | 22.3 µM | 18.1 µM | 21.1 µM | 25.3 µM | 14.7 µM | 28.8 µM | 18 µM | 27 µM | – | – |
| COc1cc(NS(C)(=O)=O)ccc1NCc1c2ccccc2nc2ccccc12 | > 100 µM | 22.3 µM | > 100 µM | > 100 µM | 57.5 µM | – | 91.1 µM | – | – | > 100 µM | – | – | – | – | – | – | – | – | – | – |
| COc1cc(C(=O)O[C@H](C(=O)NCCN(C)CCNC(=O)[C@@H](OC(=O)c2cc(OC)cc3c(C)cccc23)[C@]2(C)CO2)[C@]2(C)CO2)c2cccc(C)c2c1 | 0.721 µM | 0.679 µM | 0.929 µM | 1.55 µM | – | > 100 µM | – | 1.3 µM | 7.85 µM | 1.57 µM | 0.182 µM | 0.893 µM | < 0.01 µM | 0.0391 µM | – | 0.304 µM | < 0.0506 µM | 0.348 µM | 0.056 µM | < 0.01 µM |
| CC1=NOC(=O)/C1=C/c1ccc([N+](=O)[O-])cc1 | > 100 µM | > 100 µM | > 100 µM | > 100 µM | > 100 µM | – | > 100 µM | – | > 100 µM | > 100 µM | – | – | – | – | – | – | – | – | – | – |
| O=S(=O)(N=NC=C1c2ccccc2N(O)c2ccccc21)c1ccc(Cl)cc1 | > 100 µM | > 100 µM | > 100 µM | > 100 µM | – | – | > 100 µM | – | > 100 µM | > 100 µM | – | – | – | – | – | – | – | – | – | – |
| CCOc1ccc(NCC2CC/C(=C\c3ccccc3OC)C2=O)cc1 (centres undefined) | 34.1 µM | 12.8 µM | 20.8 µM | 5.59 µM | 21.4 µM | – | 18.6 µM | – | > 57.8 µM | 26.7 µM | – | – | – | – | – | – | – | – | – | – |
